Test results published in the supplement of paper PMC7214452.

Key:
Experiment in all cases: normalized area under the dose-response curve (viability relative to DMSO control) (fraction); higher = less sensitive (more viable cells)
Conditions in all cases: exposure time not given
[1] = tested on: SU-DHL1 (cancer type: TCL)
Experimental: (§1)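 25 myeloma and 15 non-Hodgkin lymphoma cell lines were exposed to each of 76 drugs as 7-point log dilutions (0.01 nM–10 µM) in duplicate. Viability was read with CellTiter-Glo and normalised to DMSO (0.1%) and staurosporine (10 µM) plate controls. Normalised AUC was calculated by the trapezoidal method relative to the negative control.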

KMS26 (cancer type: MM) = tested on: KMS26 (cancer type: MM)
Experimental: as §1

[2] = tested on: Karpas-299 (cancer type: TCL)
Experimental: as §1

SKMM2 (cancer type: MM) = tested on: SKMM2 (cancer type: MM)
Experimental: as §1

LP1 (cancer type: MM) = tested on: LP1 (cancer type: MM)
Experimental: as §1

[3] = tested on: JeKo-1 (cancer type: Mantle)
Experimental: as §1

[4] = tested on: SR-786 (cancer type: TCL)
Experimental: as §1

[5] = tested on: KMS12PE (cancer type: MM)
Experimental: as §1

OPM2 (cancer type: MM) = tested on: OPM2 (cancer type: MM)
Experimental: as §1

KMS34 (cancer type: MM) = tested on: KMS34 (cancer type: MM)
Experimental: as §1

My-La (cancer type: TCL) = tested on: My-La (cancer type: TCL)
Experimental: as §1

[6] = tested on: HuT 78 (cancer type: TCL)
Experimental: as §1

[7] = tested on: SU-DHL2 (cancer type: DLBCL)
Experimental: as §1

[8] = tested on: SU-DHL6 (cancer type: DLBCL)
Experimental: as §1

[9] = tested on: Mino (cancer type: Mantle)
Experimental: as §1

EJM (cancer type: MM) = tested on: EJM (cancer type: MM)
Experimental: as §1

KMS11 (cancer type: MM) = tested on: KMS11 (cancer type: MM)
Experimental: as §1

JJN3 (cancer type: MM) = tested on: JJN3 (cancer type: MM)
Experimental: as §1

[10] = tested on: OCI-MY5 (cancer type: MM)
Experimental: as §1

[11] = tested on: KMS28BM (cancer type: MM)
Experimental: as §1

L363 (cancer type: MM) = tested on: L363 (cancer type: MM)
Experimental: as §1

MM1.S (cancer type: MM) = tested on: MM1.S (cancer type: MM)
Experimental: as §1

MM1.R (cancer type: MM) = tested on: MM1.R (cancer type: MM)
Experimental: as §1

[12] = tested on: OCI-LY19 (cancer type: DLBCL)
Experimental: as §1

[13] = tested on: Granta-519 (cancer type: Mantle)
Experimental: as §1

[14] = tested on: NCI-H929 (cancer type: MM)
Experimental: as §1

FR4 (cancer type: MM) = tested on: FR4 (cancer type: MM)
Experimental: as §1

[15] = tested on: OCI-LY1 (cancer type: DLBCL)
Experimental: as §1

KMS18 (cancer type: MM) = tested on: KMS18 (cancer type: MM)
Experimental: as §1

[16] = tested on: OCI-MY5/Vec (cancer type: MM)
Experimental: as §1

[17] = tested on: OCI-MY7 (cancer type: MM)
Experimental: as §1

[18] = tested on: OCI-LY3 (cancer type: DLBCL)
Experimental: as §1

AMO1 (cancer type: MM) = tested on: AMO1 (cancer type: MM)
Experimental: as §1

Se-Ax (cancer type: TCL) = tested on: Se-Ax (cancer type: TCL)
Experimental: as §1

U266 (cancer type: MM) = tested on: U266 (cancer type: MM)
Experimental: as §1

[19] = tested on: OCI-MY5/CRBN (cancer type: MM)
Experimental: as §1

[20] = tested on: KMS28PE (cancer type: MM)
Experimental: as §1

XG2 (cancer type: MM) = tested on: XG2 (cancer type: MM)
Experimental: as §1

[21] = tested on: RPMI 8226 (cancer type: MM)
Experimental: as §1

[22] = tested on: JVM2 (cancer type: Mantle)
Experimental: as §1

Structure (SMILES) | normalized area under the dose-response curve [1] | normalized area under the dose-response curve (KMS26 (cancer type: MM)) | normalized area under the dose-response curve [2] | normalized area under the dose-response curve (SKMM2 (cancer type: MM)) | normalized area under the dose-response curve (LP1 (cancer type: MM)) | normalized area under the dose-response curve [3] | normalized area under the dose-response curve [4] | normalized area under the dose-response curve [5] | normalized area under the dose-response curve (OPM2 (cancer type: MM)) | normalized area under the dose-response curve (KMS34 (cancer type: MM)) | normalized area under the dose-response curve (My-La (cancer type: TCL)) | normalized area under the dose-response curve [6] | normalized area under the dose-response curve [7] | normalized area under the dose-response curve [8] | normalized area under the dose-response curve [9] | normalized area under the dose-response curve (EJM (cancer type: MM)) | normalized area under the dose-response curve (KMS11 (cancer type: MM)) | normalized area under the dose-response curve (JJN3 (cancer type: MM)) | normalized area under the dose-response curve [10] | normalized area under the dose-response curve [11] | normalized area under the dose-response curve (L363 (cancer type: MM)) | normalized area under the dose-response curve (MM1.S (cancer type: MM)) | normalized area under the dose-response curve (MM1.R (cancer type: MM)) | normalized area under the dose-response curve [12] | normalized area under the dose-response curve [13] | normalized area under the dose-response curve [14] | normalized area under the dose-response curve (FR4 (cancer type: MM)) | normalized area under the dose-response curve [15] | normalized area under the dose-response curve (KMS18 (cancer type: MM)) | normalized area under the dose-response curve [16] | normalized area under the dose-response curve [17] | normalized area under the dose-response curve [18] | normalized area under the dose-response curve (AMO1 (cancer type: MM)) | normalized area under the dose-response curve (Se-Ax (cancer type: TCL)) | normalized area under the dose-response curve (U266 (cancer type: MM)) | normalized area under the dose-response curve [19] | normalized area under the dose-response curve [20] | normalized area under the dose-response curve (XG2 (cancer type: MM)) | normalized area under the dose-response curve [21] | normalized area under the dose-response curve [22]
CC(C)C[C@H](NC(=O)[C@H](Cc1ccccc1)NC(=O)c1cnccn1)B(O)O [Bortezomib] | 0.1 | 0.0685 | 0.332 | 0.212 | 0.255 | 0.009 | 0.285 | 0.26 | 0.197 | 0.196 | 0.23 | 0.192 | 0.0391 | 0.536 | 0.0129 | 0.0632 | 0.131 | 0.343 | 0.116 | 0.0704 | 0.0891 | 0.09 | 0.06 | 0.111 | 0.0456 | 0.09 | 0.7 | 0.0798 | 0.0645 | 0.015 | 0.08 | 0.0249 | 0.0751 | 0.102 | 0.167 | 0.0146 | 0.0881 | 0.05 | 0.261 | 0.0575
COc1cc(Nc2c(C#N)cnc3cc(OCCCN4CCN(C)CC4)c(OC)cc23)c(Cl)cc1Cl [Bosutinib] | 0.667 | 0.863 | 0.701 | 0.697 | 0.451 | 0.889 | 0.872 | 0.58 | 0.606 | 0.447 | 0.795 | 0.714 | 0.836 | 0.924 | 0.653 | 0.663 | 0.5 | 0.571 | 0.39 | 0.629 | 0.525 | 0.83 | 0.77 | 0.898 | 0.771 | 0.8 | 0.598 | 0.856 | 0.798 | 0.914 | 0.79 | 0.792 | 0.45 | 0.736 | 0.874 | 0.933 | 0.54 | 0.501 | 0.651 | 0.534
COc1cc(N2CCC(N3CCN(C)CC3)CC2)ccc1Nc1ncc(Cl)c(Nc2ccccc2P(C)(C)=O)n1 [Brigatinib] | 0.123 | 0.611 | 0.504 | 0.789 | 0.598 | 0.815 | 0.556 | 0.79 | 0.179 | 0.308 | 0.76 | 0.524 | 0.936 | 0.891 | 0.863 | 0.55 | 0.466 | 0.527 | 0.574 | 0.539 | 0.538 | 0.46 | 0.51 | 0.803 | 0.84 | 0.39 | 0.723 | 0.989 | 0.469 | 0.785 | 0.83 | 0.921 | 0.525 | 0.748 | 0.5 | 0.835 | 0.191 | 0.745 | 0.351 | 0.855
Nc1cc(C(F)(F)F)c(-c2cc(N3CCOCC3)nc(N3CCOCC3)n2)cn1 [Buparlisib] | 0.375 | 0.498 | 0.513 | 0.573 | 0.493 | 0.365 | 0.473 | 0.55 | 0.392 | 0.165 | 0.627 | 0.348 | 0.689 | 0.685 | 0.516 | 0.654 | 0.477 | 0.55 | 0.509 | 0.562 | 0.414 | 0.3 | 0.28 | 0.564 | 0.493 | 0.3 | 0.454 | 0.562 | 0.445 | 0.561 | 0.71 | 0.571 | 0.424 | 0.431 | 0.443 | 0.605 | 0.38 | 0.303 | 0.358 | 0.497
Cc1noc2c1-c1ccccc1C(c1ccc(Cl)cc1)=N[C@H]2CC(N)=O [CPI0610] | 0.794 | 0.492 | 0.72 | 0.675 | 0.687 | 0.889 | 0.713 | 0.69 | 0.685 | 0.571 | 0.748 | 0.775 | 0.696 | 0.868 | 0.686 | 0.782 | 0.642 | 0.556 | 0.554 | 0.841 | 0.601 | 0.61 | 0.67 | 0.771 | 0.905 | 0.63 | 0.691 | 0.922 | 0.746 | 0.717 | 0.52 | 0.938 | 0.526 | 0.721 | 0.583 | 0.721 | 0.704 | 0.728 | 0.629 | 0.693
COc1cc2nccc(Oc3ccc(NC(=O)C4(C(=O)Nc5ccc(F)cc5)CC4)cc3)c2cc1OC [Cabozantinib] | 0.895 | 0.94 | 0.918 | 0.798 | 0.803 | 0.852 | 0.964 | 0.72 | 0.631 | 0.68 | 0.94 | 0.762 | 0.917 | 0.91 | 0.951 | 0.756 | 0.628 | 0.706 | 0.605 | 0.793 | 0.762 | 0.59 | 0.59 | 0.867 | 0.863 | 0.61 | 0.743 | 0.956 | 0.789 | 0.729 | 0.82 | 0.865 | 0.715 | 0.721 | 0.672 | 0.858 | 0.645 | 0.734 | 0.719 | 0.63
CC(C)C[C@H](NC(=O)[C@H](CCc1ccccc1)NC(=O)CN1CCOCC1)C(=O)N[C@@H](Cc1ccccc1)C(=O)N[C@@H](CC(C)C)C(=O)[C@@]1(C)CO1 [Carfilzomib] | 0.157 | 0.0786 | 0.25 | 0.264 | 0.225 | 0.0922 | 0.25 | 0.18 | 0.187 | 0.147 | 0.19 | 0.32 | 0.0281 | 0.387 | 0.0636 | 0.104 | 0.128 | 0.356 | 0.105 | 0.0754 | 0.095 | 0.11 | 0.07 | 0.0752 | 0.094 | 0.12 | 0.638 | 0.0418 | 0.0656 | 0.0171 | 0.11 | 0.0311 | 0.0997 | 0.113 | 0.177 | 0.0124 | 0.11 | 0.0918 | 0.285 | 0.0748
Cc1cc(Nc2ncc(Cl)c(Nc3ccccc3S(=O)(=O)C(C)C)n2)c(OC(C)C)cc1C1CCNCC1 [Ceritinib] | 0.0824 | 0.677 | 0.61 | 0.348 | 0.365 | 0.885 | 0.657 | 0.54 | 0.193 | 0.0994 | 0.828 | 0.534 | 0.926 | 0.877 | 0.837 | 0.502 | 0.344 | 0.281 | 0.261 | 0.276 | 0.352 | 0.32 | 0.29 | 0.85 | 0.962 | 0.42 | 0.403 | 0.966 | 0.487 | 0.539 | 0.63 | 0.813 | 0.355 | 0.442 | 0.413 | 0.622 | 0.161 | 0.372 | 0.303 | 0.899
